From patent publication US11406589B2, “Cutibacterium granulosum strain, and composition comprising such strain or culture thereof for preventing or treating acne” (GENOME AND COMPANY, priority 2018, dated 2022)

How the values were obtained:
[1] = test system: Staphylococcus aureus KCTC 1621; experiment: Growth inhibition, overlay clear zone test; format: cell-based; details: overlay on RCM agar, about 40 hours; triclosan positive control 10 mg/ml
Excerpt: (§1) The effect of growth inhibition of S. aureus and C. acnes was confirmed by observing formation of a clear zone. […] The experiment was progressed, expecting that S. aureus and C. acnes around Cutibacterium granulosum GENSC02 could not grow and they became transparent, if Cutibacterium granulosum GENSC02 had the effect of inhibiting the growth of bacteria. The Cutibacterium granulosum GENSC02 culture broth was collected with a platinum loop and was anaerobically cultured in a thin RCM agar plate at 37° C. for 72 hours by drawing a line about 2.5 cm. After confirming that Cutibacterium granulosum GENSC02 sufficiently grew, S. aureus and C. acnes strains adjusted to 10^4 cfu/ml were inoculated in 10 ml RCM agar at about 45° C. which was not yet solidified, and they were well suspended before the medium was hardened, and they were evenly solidified by pouring them on the agar plate in which Cutibacterium granulosum GENSC02 grew. In the solidified agar plate, S. aureus and C. acnes were further cultured anaerobically at 37° C. for about 40 hours and about 72 hours, respectively, to observe the size of the clear zone appearing around Cutibacterium granulosum GENSC02. As the negative control group, phosphate-buffered saline (PBS) was used, and as the positive control group, triclosan was used, and S. aureus and C. acnes were treated at an amount of 10 mg/ml and 200 mg/ml, respectively.

[2] = test system: Cutibacterium acnes ATCC 6919; experiment: Growth inhibition, overlay clear zone test; format: cell-based; details: overlay on RCM agar, about 72 hours; triclosan positive control 200 mg/ml
Excerpt: as §1

[3] = test system: HAS3 (hyaluronic acid synthase); experiment: Skin moisturizing function: HAS3 RNA expression in HaCaT cell line; format: cell-based, human; details: 24 hours, retinoic acid 1 μM (positive control)
Protocol: (§2) To investigate a function for a skin moisturizing effect by GENSCO2 fermented filtrates, it was confirmed that the fermented filtrates of GENSCO2 were treated to the HaCaT cell line by % to the cell culture solution, and then were reacted for 24 hours to confirm the expression of HAS3 (hyaluronic acid synthase) and aquaporin which were markers of the skin moisturizing function on RNA.

[4] = test system: aquaporin; experiment: Skin moisturizing function: aquaporin RNA expression in HaCaT cell line; format: cell-based, human; details: 24 hours, retinoic acid 1 μM (positive control)
Protocol: as §2

[5] = test system: filaggrin; experiment: Skin barrier function: filaggrin RNA expression in HaCaT cell line; format: cell-based, human; details: 24 hours, retinoic acid 1 μM (positive control)
[6] = test system: claudin-1; experiment: Skin barrier function: claudin-1 RNA expression in HaCaT cell line; format: cell-based, human; details: 24 hours, retinoic acid 1 μM (positive control)

Compound: Oc1cc(Cl)ccc1Oc1ccc(Cl)cc1Cl [triclosan]
- growth inhibition of S. aureus (clear zone) [1]: much smaller area than GENSC02 treatment
- growth inhibition of C. acnes (clear zone) [2]: much smaller area than GENSC02 treatment

Compound: CC1=C(/C=C/C(C)=C/C=C/C(C)=C/C(=O)O)C(C)(C)CCC1 [retinoic acid]
- expression of HAS3 (hyaluronic acid synthase) [3]: 2˜4 times
- expression of aquaporin [4]: 2˜4 times
- expression of filaggrin [5]: 1.5 times
- expression of claudin-1 [6]: 1.5 times
